Results reported in patent publication US6417180B1, “Zinc finger-reactive antimicrobial compounds” (priority 1998, dated 2002).

How the values were obtained:
B. subtilis pol III [1] = target: T1, B. subtilis pol III (Bacillus subtilis, UniProt P13267); assay: Radioactive zinc content of 65Zn-labeled pol III after treatment with zinc-removing compound; type: biochemical; conditions: 0.2 mM MMTS, one hour
T1 construct: the so-called wild-type pol III, was identical to the native enzyme found in B. subtilis; made in house; host or cells: E. coli AR120, plasmid pKC30/polC
Experimental: (§1) 0.2 nanomoles of pol III was mixed in 0.1 ml of HNE buffer (10 mM HEPES, 100 mM NaCl, and 10% glycerol [pH 7.6]) containing 0.3 mM Compound 20, and the mixture was incubated at 25° C. for one hour. The pol III was removed from Compound 20 by passage through a Sephadex G-25 spin column, and the enzyme assayed for polymerase activity and for its content of radioactive zinc (see procedures described above).
Ejection of Zinc by Treatment of Coordinating Thiolates with MMTS. The compound MMTS is described in Example 2 above. 0.2 nanomoles of ^65Zn-labeled B. subtilis pol III was incubated with HNE buffer with or without 0.2 mM MMTS for one hour, and the samples assayed as described for the pol III treatment with Compound 20.

B. subtilis pol III [2] = target: T1, B. subtilis pol III; assay: 65Zn release from labeled pol III by MMTS (Sephadex G-25 separation); type: biochemical; conditions: 60 minutes, 0° C.
Experimental: Pol III was labeled by growing bacteria transformed with the above-described pol III expression plasmids in the presence of ^65Zn. LB expression medium was first depleted of divalent trace metals by mixing the medium with 0.3 volume of Chelex-Na (Bio-Rad) for 24 hours at 0° C. The depleted medium was then supplemented with 0.1 mM MgCl2 to support a level of E. coli growth compatible with pol III expression. E. coli AR120 transformed with the pKC30/polC vector was grown at 30° C. in this magnesium-supplemented medium. When the culture reached an absorbance of 0.5 ([…], 1 cm path length), 10 ml of the culture was added to one liter of the zinc-depleted, magnesium-supplemented medium, which further included [^65Zn]Cl2 (New England Nuclear; specific activity of 2.7 mCi/μmole) to a radioactivity level of 1.1 μCi/ml medium. Incubation was continued until the culture reached an absorbance of 0.75. […]
To remove non-specifically bound ^65Zn and exogenous thiols, the pol III was dialyzed as described in Example 1 above, and the labeled protein was further dialyzed with HNE buffer (10 mM HEPES [pH 7.6], 100 mM NaCl, and 0.1 mM EDTA) to remove exogenous thiols. […] The fraction eluted with each step was analyzed by liquid scintillation counting to determine the amount of protein-bound ^65Zn (void volume) and the amount of free ^65Zn (included volume).

B. subtilis pol III [3] = target: T1, B. subtilis pol III; assay: Polymerase activity of pol III after treatment with zinc-removing compound; type: biochemical; conditions: 0.2 mM MMTS, one hour
Experimental: (§2) Polymerase activity was determined as described in Barnes et al., Meth. Enzymol., 262:35-42, 1995, using activated calf thymus DNA (Worthington) as template and primer and [^3H]dTTP as the substrate. One unit of polymerase activity was defined as the activity which catalyzes the incorporation of one nanomole of [^3H]dTMP in 10 minutes at 30° C. For determination of the KM of the polymerase for DNA, the concentration of activated calf thymus DNA was varied during assay from 0-0.8 mg/ml. For determination of the KM for dGTP, incorporation of [^3H] dTMP was followed as a function of dGTP concentration (0-0.5 mM), and the values for incorporation were corrected for dGTP-independent, background incorporation.
as §1
Ejection of Zinc by Treatment of Coordinating Thiolates with MMTS. The compound MMTS is described in Example 2 above. […]

B. subtilis pol III [4] = target: T1, B. subtilis pol III; assay: Reconstitution of zinc-deficient inactive polymerase with ZnCl2/DTT; type: biochemical; conditions: pol III inactivated by MMTS; 0.01 mM ZnCl2 and 0.01 mM DTT, 25° C., 12 hours
Experimental: At 30 minute intervals, samples were removed and assayed for pol activity.

[5] = target: T2, Wildtype B. subtilis pol III (Bacillus subtilis, UniProt P13267); assay: TMAU sensitivity of polymerase activity, wild-type enzyme; type: biochemical
T2 construct: made in house; host or cells: E. coli SG101, plasmid pSGA04
Experimental: as §2
Tagged wild-type and mutant forms of pol III were obtained at greater than 95% homogeneity using the procedure of Example 1 above. The proteins were then subjected to EDTA-based dialysis, and analyzed for zinc content as described in Example 1.
(§3) Each of the five purified mutant enzymes of Table I was analyzed directly, in its native, undialyzed form, to assess the impact of the respective mutation on (1) exonuclease and polymerase activity; (2) affinity for exonuclease and polymerase substrates; and (3) sensitivity of the polymerase activity to TMAU, a dGTP analog which inhibits the pol III of Gram-positive eubacteria (Wright et al., Pharmac. Therap., 47:447-497, 1990).

[6] = target: T3, C940A B. subtilis pol III (Bacillus subtilis, UniProt P13267, C940A); assay: TMAU sensitivity of polymerase activity, C940A mutant; type: biochemical; conditions: C940A enzyme
T3 construct: Each of the three full-length mutants (C912A, C915A, and C940A); made in house; host or cells: E. coli SG101, plasmid pSGA04
Experimental: as §2
(§4) An oligonucleotide-based system (Altered Sites, Promega) was used to introduce the mutations into the segment of polC encoding the putative zinc finger. […]
as §3

[7] = target: T4, H909A B. subtilis pol III (Bacillus subtilis, UniProt P13267, H909A); assay: TMAU sensitivity of polymerase activity, H909A mutant; type: biochemical; conditions: H909A enzyme
T4 construct: The H909A enzyme, although expressed as a full-length protein, was not readily produced in an amount sufficient for metal analysis; made in house; host or cells: E. coli SG101, plasmid pSGA04
Experimental: as §2, §4, §3

[8] = target: T5, C915A B. subtilis pol III (Bacillus subtilis, UniProt P13267, C915A); assay: TMAU sensitivity of polymerase activity, C915A mutant; type: biochemical; conditions: C915A enzyme
T5 construct: Each of the three full-length mutants (C912A, C915A, and C940A); made in house; host or cells: E. coli SG101, plasmid pSGA04
Experimental: as §2, §4, §3

S. aureus = conditions: 40 mg/kg intravenously every four hours; cited from earlier work
[9] = test system: methicillin-sensitive S. aureus (ATCC No. 29213); assay: Thigh infection in neutropenic ICR/Swiss mice (Example 10); type: in vivo; conditions: 40 mg/kg i.v. at 2, 6, 12, 18 hours post-infection; 24 hours after infection; 100× diluted homogenate; saline controls about 500
Experimental: Before infection with test bacteria, six six-week old pathogen-free ICR/Swiss mice are rendered neutropenic (less than 100 neutrophils per milliliter of blood) by intraperitoneal injection of two doses of cyclophosphamide. The first injection is made at 150 mg/kg four days before bacterial infection, and the second injection is made at 100 mg/kg one day before bacterial infection. Neutropenia is induced so that a wide variety of bacteria can be used for the subsequent infection.
Bacterial infection for each mouse is performed by inoculating 10^6 cfu of methicillin-sensitive S. aureus (ATCC No. 29213) in 100 μl of media into the right thigh muscle. The compound and control mixtures are administered intravenously into the tail vein of the animal at 2, 6, 12, and 18 hours post-infection. Two mice received 50 μl of a negative control mixture of physiological saline at each time point. Another pair of mice received a positive control mixture of 40 mg/kg body weight vancomycin in saline at each time point. The last two mice received 40 mg/kg body weight of the candidate compound in saline at each time point.
At 24 hours after infection, all mice are sacrificed, and the right thigh muscle of each mice removed. […] After incubating at 37° C. for 24 hours, the number of colonies on each plate is counted. […]

For CSS(C)(=O)=O [MMTS, methylmethanethio-sulfonate], the “radioactive zinc content relative to control” value (B. subtilis pol III [1]) was “less than 2 % of the control”, the “65Zn label released from pol III” value (B. subtilis pol III [2]; 0.01 mM MMTS) was “about 50%” and the “65Zn label released from pol III” value (B. subtilis pol III [2]; three higher concentrations (0.03, 0.10, 0.3 mM MMTS)) was “greater than 95%”. The “pol III activity relative to control” value (B. subtilis pol III [3]) was “less than 1 % of the control” and the “reactivation of pol activity after treatment” value (B. subtilis pol III [4]) was “No reactivation”.
With O=c1cc(Nc2ccc3c(c2)CCC3)[nH]c(=O)[nH]1 [TMAU] the IC50 [5] was 4.1 µM, the IC50 [6] was 4 µM and the IC50 [7] was 4 µM. It also gave an IC50 [8] of 2.9 µM.
In the case of CN[C@H](CC(C)C)C(=O)N[C@H]1C(=O)N[C@@H](CC(N)=O)C(=O)N[C@H]2C(=O)N[C@H]3C(=O)N[C@H](C(=O)N[C@H](C(=O)O)c4cc(O)cc(O)c4-c4cc3ccc4O)[C@H](O)c3ccc(c(Cl)c3)Oc3cc2cc(c3O[C@@H]2O[C@H](CO)[C@@H](O)[C@H](O)[C@H]2O[C@H]2C[C@](C)(N)[C@H](O)[C@H](C)O2)Oc2ccc(cc2Cl)[C@H]1O [vancomycin], the “reduction in S. aureus proliferation compared with control thighs” value (S. aureus) is given as “two to four” and the “colonies from thigh muscle homogenate” value [9] is given as “about 40 colonies on each plate”.
